Series [1] deals with IN (Human immunodeficiency virus type 1 group M subtype B, UniProt P04585). The settings on record: background section; read-out: IC50 inhibition of IN; cited from earlier work.
Series [2] concerns HIV-1-derived vectors pseudotyped with the VSV-G envelope. The series is described as follows: microbe, parasite or virus in culture. In kind it is cell-based. The settings on record: Human immunodeficiency virus 1, HEK-293T, read-out: EC50 inhibition of lentiviral transduction.
In series [3] the test system is HIV-1 L1. The series is described as follows: inhibition of virus-induced cytopathicity in MT-4 cells, HIV-1 clinical isolate L1. It is filed as cell-based. Particulars: Human immunodeficiency virus 1, MT4, 120 h, read-out: EC50 HIV-1 L1. Background: Damage to the host cells serves as the signal in cytopathic effect assays.
Series [4] relates to SIV (MAC251). The series is described as follows: inhibition of virus-induced cytopathicity in MT-4 cells, SIV (MAC251). In kind it is cell-based, Simian immunodeficiency virus. The settings on record: for EC50: Simian immunodeficiency virus, MT4, 120 h, read-out: EC50 SIV MAC251.
Series [5] addresses T1, recombinant His-tagged HIV-1 integrase (Human immunodeficiency virus type 1 group M subtype B, UniProt P04585). The series is described as follows: HIV-1 integrase 3′-processing assay, oligonucleotide-based. The settings on record: for inhibition of the 3-processing reaction: in words.
Protocol: (§1) Reactions were started by the addition of the enzyme. Inhibitors were incubated shortly with the reaction components before the addition of integrase. Reactions were allowed to proceed at 37° C. for 7 minutes and stopped by the addition of formamide loading buffer (95% formamide, 30 mM ethylenediamine tetraacetic acid, 0.1% xylene cyanol, 0.1% bromophenol blue, 0.1% sodium dilaurylsulfate SDS). In the overall integration assay, this reaction was allowed to proceed for 60 minutes before the addition of a formamide dye.
For series [6], the system named is HIV-1(IIIB). Briefly: inhibition of virus-induced cytopathicity in MT-4 cells, HIV-1 (IIIB). In kind it is cell-based. The settings on record: for EC50: Human immunodeficiency virus 1, IIIB, MT4, 120 h, MT-4 cells, viral cytopathic effect, 5 days post-infection; for activity against the replication of HIV-1(IIIB): in words.
Series [7] relates to HIV-2 (ROD). The series is described as follows: inhibition of virus-induced cytopathicity in MT-4 cells, HIV-2 (ROD). It is filed as cell-based. Particulars: for EC50: Human immunodeficiency virus 2, MT4, 120 h, read-out: EC50 HIV-2 ROD.
For series [8], the system named is HIV-2 (EHO). The series is described as follows: inhibition of virus-induced cytopathicity in MT-4 cells, HIV-2 (EHO). In kind it is cell-based. The settings on record: for EC50: Human immunodeficiency virus 2, MT4, 120 h, read-out: EC50 HIV-2 EHO.
For series [9], the target named is T1, recombinant His-tagged HIV-1 integrase. The series is described as follows: HIV-1 integrase overall integration assay, oligonucleotide-based. Particulars: for inhibition of the overall integration reaction: in words.
Protocol: as §1
Series [10] is described as follows: cytotoxicity, viability of mock-infected cells. Particulars: human, viability of mock-infected MT-4 cells. It is filed as cell-based. On the procedure: Cytotoxicity of these compounds was determined in parallel by measuring the viability of mock-infected MT-4 or C8166 cells 5 days post-infection. The antiviral activity and cytotoxicity data, including average values and standard deviations for at least two separate experiments, are depicted in Table 2, wherein: CC50 represents the 50% cytotoxic concentration, i.e. the concentration that reduces by 50% the viability of MT-4 cells.

Series [11] deals with T2, Recombinant HIV-1 RT (HXB2) (Human immunodeficiency virus type 1 group M subtype B, UniProt P04585).
T2 construct: Recombinant HIV-1 RT (HXB2) was obtained as described by Jonckheere et al; made in house
Briefly: inhibition of HIV-1 reverse transcriptase enzymatic activity. In kind it is biochemical. From the text: Poly(rC).oligo(dG) and poly (rA).oligo(dT) were used as template-primers, and 8-[^3H]-dGTP and [^3H]-dTTP were used as radiolabelled substrates.

Series [12] deals with T1, recombinant His-tagged HIV-1 integrase. The series is described as follows: HIV-1 integrase strand transfer assay, oligonucleotide-based.
Series [13] has as its system HIV-1 L6. It is filed as cell-based. The settings on record: L6 versus wild type strain L1.
For series [14], the system named is HIV-1 L2. In kind it is cell-based.
In series [15] the test system is HIV-1 L4. In kind it is cell-based.
Where [16] appears, read: MT-4 cells, viral cytopathic effect, 5 days post-infection.
Where [17] appears, read: IC50 Poly(A).oligo(dT), template-primer poly(A).oligo(dT).
The mark [18] stands for this setting: IC50 poly(C).oligo(dG), template-primer poly(C).oligo(dG).

These results are taken from patent publication US20030187003A1, “Pharmaceutical compositions and method for the treatment of retroviral infections” (priority 2000, published 2003).

Read-outs that look alike come from different tables or passages of the source.

As to `[N-]=[N+]=Nc1cn([C@H]2C[C@H](N=[N+]=[N-])[C@@H](COP(=O)(O)O)O2)c(=O)[nH]c1=O` [5-N3-AZUMP, 3′,5-diazido-2′,3′-dideoxyuridine 5′-monophosphate], the IC50 in series [1] is 150 µM.

On to `Cc1cn([C@H]2C[C@H](N=[N+]=[N-])[C@@H](CO)O2)c(=O)[nH]c1=O` [AZT, reference compound], for which the EC50 in series [2] turned out to be 0.049 µM.

As to `Oc1nc(O)c2c(n1)Oc1nc(O)nc(O)c1C2c1ccc(I)cc1` [A], the EC50 in series [3] (setting [16]), in series [4] (setting [16]), in series [6], in series [7] (setting [16]) and in [8] (setting [16]) was more than 276 µM throughout. Besides, the IC50 in series [5] and in [9] was more than 207 µM each time. In addition, the CC50 at 5 days in series [10] is more than 276 µM.

Regarding `Clc1nc(Cl)c2c(n1)Oc1nc(Cl)nc(Cl)c1C2c1ccccc1` [B], the EC50 in series [3] (setting [16]), in [4] (setting [16]), in [6], in [7] (setting [16]) and in [8] (setting [16]) was more than 17.5 µM in each case. Further, the figures for the IC50 in [5] and in series [9] were 74 ± 38.5 µM and 25 ± 4.5 µM, respectively. The CC50 at 5 days in series [10] is 17.5 µM.

Regarding `Oc1nc(O)c2c(n1)Oc1nc(O)nc(O)c1C2c1ccccc1` [C], the EC50 is 116 ± 30 µM in [3]; 194 µM in [4]; 170 ± 45 µM in series [6]; more than 383 µM in series [7]; 169 ± 27 µM in series [8]. Moreover, the IC50 in series [5] is 22.4 ± 6.4 µM; in series [11] (setting [17]), 33.1 ± 15.1 µM; in series [11] (setting [18]), 15.1 ± 5.9 µM; in series [12] it was 782 ± 242 µM; in series [9], 34.6 ± 11.3 µM. Further, the “inhibition of the 3-processing reaction” value in [5] is reported as “inhibited”. The “activity against the replication of HIV-1(IIIB)” value (“activity … of HIV-1(IIIB)” for short) in series [6] is given as “active”. Moreover, in series [9], the “inhibition of the overall integration reaction” value is listed as “inhibited”. The CC50 at 5 days in series [10] is more than 383 µM.

Consider `COc1nc(O)nc2c1C(c1ccc([N+](=O)[O-])cc1)c1c(OC)nc(O)nc1O2` [D], for which the EC50 in [3] (setting [16]), in [4] (setting [16]), in [6], in series [7] (setting [16]) and in series [8] (setting [16]) was more than 313 µM throughout. The IC50 in series [5] and in [9] was more than 250 µM in each case. Moreover, the CC50 at 5 days in series [10] is more than 313 µM.

`Oc1nc(O)c2c(n1)Oc1nc(O)nc(O)c1C2c1ccc(Br)cc1` [E]: the EC50 is more than 309 µM in series [3]; more than 309 µM in series [4]; 273 ± 38 µM in series [6]; more than 309 µM in series [7]; more than 309 µM in series [8]. Besides, the IC50 in series [5] is 208 ± 82.2 µM; in series [11] (setting [17]) it was more than 494 µM; in [11] (setting [18]), more than 494 µM; in series [12] it was more than 1240 µM; in series [9], 298 ± 7.7 µM. Moreover, the “inhibition of the 3-processing reaction” value in series [5] was “inhibited”. The “activity … of HIV-1(IIIB)” value in [6] is on record as “active”. The “inhibition of the overall integration reaction” value in series [9] is “inhibited”. This compound came in with a CC50 at 5 days in [10] of more than 309 µM.

Regarding `Oc1nc(O)c2c(n1)Oc1nc(O)nc(O)c1C2c1ccc(Cl)cc1` [F], the EC50 in series [3] (setting [16]), in series [4] (setting [16]), in series [6], in [7] (setting [16]) and in series [8] (setting [16]) was more than 347 µM each time. For the same compound, the IC50 was 144 ± 81.3 µM in series [5] and 97.1 ± 93.8 µM in series [9]. The same compound registered a CC50 at 5 days in [10] of more than 347 µM.

With `Oc1nc(S)nc2c1C(c1ccc(Cl)cc1)c1c(O)nc(S)nc1O2` [G], the EC50 is 101 ± 32 µM in [3]; 100 µM in series [4]; 56.8 ± 30 µM in [6]; more than 137 µM in series [7]; more than 137 µM in [8]; 95.6 ± 6.5 µM in series [14] (Human immunodeficiency virus 1). The compound further displayed an EC50 in [15] (Human immunodeficiency virus 1) of 163 ± 3.7 µM. The IC50 in [5] was 0.9 ± 0.5 µM; in series [11] (setting [17]), 35.2 ± 0.4 µM; in series [11] (setting [18]), 25.8 ± 15.9 µM; in [12], 201 ± 120 µM; in [9], 1 ± 0.4 µM. In series [5], the “inhibition of the 3-processing reaction” value is recorded as “inhibited”. For the same compound, the “activity … of HIV-1(IIIB)” value in series [6] was “active”. Moreover, the entries for the “fold increase in EC50” value in [13], in series [14] (L2 versus wild type strain L1) and in series [15] (L4 versus wild type strain L1) were 1.8, 0.9 and 1.6, respectively. Also, the “inhibition of the overall integration reaction” value in series [9] is given as “inhibited”. This compound also returned a CC50 at 5 days in series [10] of 137 µM.

As for `Cc1ccnc2c1NC(=O)c1cccnc1N2C1CC1` [nevirapine, reference compound], the EC50 in series [3] (setting [16]) is 0.06 ± 0.01 µM; in series [4] (setting [16]) it was more than 97.6 µM; in series [6], 0.04 µM; in series [7] (setting [16]), more than 97.6 µM; in [8] (setting [16]), more than 97.6 µM. Moreover, in series [4] (at 98 μM in MT-4 cells), the “activity against the replication of SIV (MAC251)” value is “inactive”. Also, the “activity against the replication of HIV-2 (ROD)” value in series [7] (at 98 μM in MT-4 cells) was “inactive”. Further, the “activity against the replication of HIV-2 (EHO)” value in [8] (at 98 μM in MT-4 cells) was “inactive”. Moreover, the CC50 at 5 days in series [10] was more than 97.6 µM.

In the case of Dextran sulfate [reference compound], the IC50 in series [11] (template-primer poly(A).oligo(dT), read-out: IC50 Poly(A).oligo(dT)) amounted to 22 ± 8.8 µM; in series [11] (template-primer poly(C).oligo(dG), read-out: IC50 poly(C).oligo(dG)), 7.3 ± 3.2 µM.

The IC50 is the point on the concentration scale where inhibition reaches its midpoint. As a reminder, the EC50 is the concentration that produces a half-maximal response. In general, CC50 refers to the concentration at which the toxic effect on the cells reaches its halfway point.
